Test results taken from US7183061B2, “Method of expressing Heliothis ecdysone receptor fusion protein” (Syngenta Limited, priority 1996, dated 2007).

Tests used:
[1] = target: T1, glucocorticoid/Heliothis ecdysone chimeric receptor (UniProt O18473+P04150); experiment: HEK293 cells co-transfected with pcDNA3GRHEcR and pSWGRE4 (β-galactosidase reporter); format: cell-based, Heliothis virescens; set-up: expressed in transfected cells; host or cells: HEK293 (A8); settings: co-transformed HEK293 cells (FIG. 28)
T1 sequence (P04150+O18473 with tags, fused parts or gaps): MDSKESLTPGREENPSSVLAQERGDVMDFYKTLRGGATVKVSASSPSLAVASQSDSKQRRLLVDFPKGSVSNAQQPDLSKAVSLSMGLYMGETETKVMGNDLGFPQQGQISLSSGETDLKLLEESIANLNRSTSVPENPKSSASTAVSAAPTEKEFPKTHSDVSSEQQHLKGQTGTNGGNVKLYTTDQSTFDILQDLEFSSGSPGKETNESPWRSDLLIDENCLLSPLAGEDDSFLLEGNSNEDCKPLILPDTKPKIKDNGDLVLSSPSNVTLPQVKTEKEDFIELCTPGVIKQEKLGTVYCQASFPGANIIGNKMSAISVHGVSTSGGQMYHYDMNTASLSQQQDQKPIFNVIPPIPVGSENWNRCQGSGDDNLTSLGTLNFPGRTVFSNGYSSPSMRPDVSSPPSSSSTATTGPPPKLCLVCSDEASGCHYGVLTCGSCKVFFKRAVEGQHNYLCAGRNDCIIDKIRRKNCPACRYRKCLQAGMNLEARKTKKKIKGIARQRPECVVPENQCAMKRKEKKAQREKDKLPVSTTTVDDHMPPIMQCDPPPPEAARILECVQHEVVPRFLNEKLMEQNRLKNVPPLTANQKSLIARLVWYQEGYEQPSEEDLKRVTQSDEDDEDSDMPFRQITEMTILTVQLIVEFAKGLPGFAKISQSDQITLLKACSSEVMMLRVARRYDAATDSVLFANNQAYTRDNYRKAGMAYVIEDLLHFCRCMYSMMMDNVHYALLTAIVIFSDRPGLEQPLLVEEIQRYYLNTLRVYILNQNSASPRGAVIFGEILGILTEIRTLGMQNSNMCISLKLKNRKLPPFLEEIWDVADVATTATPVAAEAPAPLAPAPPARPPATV
Method: Transfections of mammalian cell lines (CHO-K1 Chinese hamster ovary) ATCC number CCL61 or cos-1 (Monkey cell line) were performed using either calcium phosphate precipitation (Gorman, Chapter 6 of “DNA cloning: a practical approach. Vol 2 D. M. Glover ed/.(1985) IRL Press, Oxford) or using LipofectAMINE (Gibco BRL Cat. No. 18324–012, following manufacturer's instructions). […] 293 cells were transfected using analogous methods.
The mammalian expression vector used in this experiment was pcDNA3 (Invitrogen). The GRHEcR 2.7 kb BamHI DNA fragment (isolated from pMF6GRHEcR) was introduced into the pcDNA3 BamHI vector. The recombinants were oriented by restriction enzyme mapping. The DNA sequence of the junctions was determined to ensure correct orientation and insertion (pcDNA3GRHEcR, FIG. 25).
The reporter plasmid for mammalian cell system was produced by taking pSWBGAL plasmid and replacing the CRESW SpeI/ClaI fragment for a synthetic 105 bp DNA fragment containing 4 copies of the glucocorticoid response element (GRE) and flanked by SpeI at the 5′ end and AflII at the 3′ end.
The two oligonucleotides were purified annealed and ligated to pSWBGAL SpeI/AflII to produce pSWGRE4 (FIG. 26).

[2] = target: T1, glucocorticoid/Heliothis ecdysone chimeric receptor; experiment: Maize protoplast GUS reporter assay with pMF6GRHEcR and p221.9GRE6; format: cell-based, Heliothis virescens; set-up: expressed in transfected cells; host or cells: maize protoplasts (A5); tobacco mesophyll protoplasts (A6); CHO-K1 (A7); HEK293 (A8); stably transformed tobacco plants (A9); settings: maize protoplasts
Method: Protoplasts were isolated from a maize suspension culture derived from BE70×A188 embryogenic callus material, which was maintained by subculturing twice weekly in MS0.5mod. (MS medium supplemented with 3% sucrose, 690 mg/l proline, 1 g/l myo-inositol, 0.2 g/l casein acid hydrolysate, 0.5 mg/l 2,4-D, pH 5.6). Cells from suspensions two days post subculture were digested in enzyme mixture (2.0% Cellulase RS, 0.2% Pectolyase Y23, 0.5 M Mannitol, 5 mM CaCl2.2H2O, 0.5% MES, pH 5.6, ˜660 mmol/kg) using ˜10 ml/g cells, incubating at 25° C., dim light, rotating gently for ˜2 hours. The digestion mixture was sieved sequentially through 250 μm and 38 μm sieves, and the filtrate centrifuged at 700 rpm for 3.5 minutes, discarding the supernatant. The protoplasts were resuspended in wash buffer (0.358 M KCl, 1.0 mM NH4NO3, 5.0 mM CaCl2.2H2O, 0.5 mM KH2PO4, pH 4.8, ˜670 mmol/kg) and pelleted as before. This washing step was repeated. The pellet was resuspended in wash buffer and the protoplasts were counted. Transformation was achieved using a Polyethylene glycol method based on Negrutiu et al. Protoplasts were resuspended at 2×10^6/ml in MaMg medium (0.4 M Mannitol, 15 mM MgCl2, 0.1% MES, pH 5.6, ˜450 mmol/kg) aliquotting 0.5 ml/treatment (i.e. 1×10^6 protoplasts/treatment). Samples were heat shocked at 45° C. for 5 minutes then cooled to room temperature. […]

[3] = system: Spodoptera exigua; settings: compared with Heliothis; cited from earlier work
[4] = target: T1, glucocorticoid/Heliothis ecdysone chimeric receptor; experiment: Tobacco mesophyll protoplast GUS reporter assay with chimeric effector and p221.9GRE6; format: cell-based, Heliothis virescens; set-up: expressed in transfected cells; host or cells: maize protoplasts (A5); tobacco mesophyll protoplasts (A6); CHO-K1 (A7); HEK293 (A8); stably transformed tobacco plants (A9); settings: tobacco protoplasts, 10 μM
Method: It is the aim in this example to show the generic application to plants of the glucocorticoid/Heliothis ecdysone chimeric receptor switch system. Tobacco shoot cultures cv. Samsun, were maintained on solidified MS medium +3% sucrose in a controlled environment room (16 hour day/8 hour night at 25° C., 55% R.H), were used as the source material for protoplasts. Leaves were sliced parallel to the mid-rib, discarding any large veins and the slices were placed in CPW13M 13% Mannitol, pH 5.6, ˜860 mmol/kg) for ˜1 hour to pre-plasmolyse the cells. This solution was replaced with enzyme mixture (0.2% Cellulase R10, 0.05% Macerozyme R10 in CPW9M (CPW13M but 9% Mannitol), pH 5.6, ˜600 mmol/kg) and incubated in the dark at 25° C. overnight (˜16 hours). Following digestion, the tissue was teased apart with forceps and any large undigested pieces were discarded. The enzyme mixture was passed through a 75 μm sieve and the filtrate was centrifuged at 600 rpm for 3.5 minutes, discarding the supernatant. The pellet was resuspended in 0.6 M sucrose solution and centrifuged at 600 rpm for 10 minutes. The floating layer of protoplasts was removed using a Pasteur pipette and diluted with CPW9M (pH 5.6, ˜560 mmol/kg). The protoplasts were again pelleted by centrifuging at 600 rpm for 3.5 minutes, resuspended in CPW9M and counted. A modified version of the PEG-mediated transformation above was carried out. […]

Row | SMILES | chemical induced reporter gene activity [1] | response of reporter ([2]; 100 μM) | sensitivity of species [3] | chemical induced reporter gene activity ([2]; concentration not printed (FIG. 20)) | marker gene activity [4]
1 | CC(C)CC[C@@H](O)[C@](C)(O)[C@H]1CC[C@@]2(O)C3=CC(=O)[C@]4(O)C[C@@H](O)[C@@H](O)C[C@]4(C)[C@H]3[C@H](O)C[C@]12C [Muristerone A] | induction of reporter activity was observed | no response |  |  | 
2 | CCc1ccc(C(=O)NN(C(=O)c2cc(C)cc(C)c2)C(C)(C)C)cc1 [RH5992, 3,5-dimethylbenzoic acid 1-1(1,1-dimethylethyl)-2(4-ethylbenzoyl)hydrazide] | significant chemical induced reporter gene activity |  | more sensitive to RH5992 than Heliothis | significant chemical induced reporter gene activity | significant elevation of marker gene activity
